From patent EP4745137A1 (Gluetacs Therapeutics (Shanghai) Co., Ltd., priority 2023, dated 2025)

Tests used:
WEE1 = target: T1, WEE1 (Homo sapiens, UniProt P30291+Q96SW2); experiment: Western-blot assay of substrate protein degradation in hPBMCs, WEE1; format: cell-based; details: 24 hours of compound treatment, compounds tested at 50 nM and 500 nM (concentration of the table not stated)
T1 construct: endogenous in cells; host or cells: hPBMCs (Milecell Biotechnologies)

IKZF1 = target: T2, IKZF1 (Homo sapiens, UniProt Q13422+Q96SW2); experiment: Western-blot assay of substrate protein degradation in hPBMCs, IKZF1; format: cell-based; details: 24 hours of compound treatment, compounds tested at 50 nM and 500 nM (concentration of the table not stated)
T2 construct: endogenous in cells; host or cells: hPBMCs (Milecell Biotechnologies)
T2 sequence (Q13422 whole entry): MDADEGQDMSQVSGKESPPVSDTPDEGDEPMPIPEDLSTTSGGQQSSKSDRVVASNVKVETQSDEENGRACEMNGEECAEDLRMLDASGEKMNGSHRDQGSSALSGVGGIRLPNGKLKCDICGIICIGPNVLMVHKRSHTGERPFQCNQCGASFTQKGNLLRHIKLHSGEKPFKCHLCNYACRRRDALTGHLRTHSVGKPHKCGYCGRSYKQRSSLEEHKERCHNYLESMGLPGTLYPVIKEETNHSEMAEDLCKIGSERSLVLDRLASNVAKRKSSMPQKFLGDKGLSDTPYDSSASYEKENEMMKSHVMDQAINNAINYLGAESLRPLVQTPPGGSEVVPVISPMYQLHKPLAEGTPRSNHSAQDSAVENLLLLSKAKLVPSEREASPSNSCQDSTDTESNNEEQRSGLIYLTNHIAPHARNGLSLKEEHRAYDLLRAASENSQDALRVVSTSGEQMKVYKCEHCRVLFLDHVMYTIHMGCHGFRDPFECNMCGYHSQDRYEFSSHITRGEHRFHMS
T2 sequence (Q96SW2 whole entry): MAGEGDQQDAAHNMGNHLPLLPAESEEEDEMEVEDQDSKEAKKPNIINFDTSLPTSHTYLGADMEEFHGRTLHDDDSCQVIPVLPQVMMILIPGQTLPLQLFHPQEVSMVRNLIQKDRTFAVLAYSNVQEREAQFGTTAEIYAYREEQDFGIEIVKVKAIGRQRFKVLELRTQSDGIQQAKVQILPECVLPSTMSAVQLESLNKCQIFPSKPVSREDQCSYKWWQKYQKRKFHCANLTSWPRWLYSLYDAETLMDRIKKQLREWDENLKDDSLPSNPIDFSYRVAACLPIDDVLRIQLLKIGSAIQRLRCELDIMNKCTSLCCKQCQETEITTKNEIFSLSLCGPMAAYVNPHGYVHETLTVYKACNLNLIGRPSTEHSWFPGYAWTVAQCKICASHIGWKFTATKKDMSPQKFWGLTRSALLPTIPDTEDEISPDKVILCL
T2 sequence (Q16531 whole entry partner): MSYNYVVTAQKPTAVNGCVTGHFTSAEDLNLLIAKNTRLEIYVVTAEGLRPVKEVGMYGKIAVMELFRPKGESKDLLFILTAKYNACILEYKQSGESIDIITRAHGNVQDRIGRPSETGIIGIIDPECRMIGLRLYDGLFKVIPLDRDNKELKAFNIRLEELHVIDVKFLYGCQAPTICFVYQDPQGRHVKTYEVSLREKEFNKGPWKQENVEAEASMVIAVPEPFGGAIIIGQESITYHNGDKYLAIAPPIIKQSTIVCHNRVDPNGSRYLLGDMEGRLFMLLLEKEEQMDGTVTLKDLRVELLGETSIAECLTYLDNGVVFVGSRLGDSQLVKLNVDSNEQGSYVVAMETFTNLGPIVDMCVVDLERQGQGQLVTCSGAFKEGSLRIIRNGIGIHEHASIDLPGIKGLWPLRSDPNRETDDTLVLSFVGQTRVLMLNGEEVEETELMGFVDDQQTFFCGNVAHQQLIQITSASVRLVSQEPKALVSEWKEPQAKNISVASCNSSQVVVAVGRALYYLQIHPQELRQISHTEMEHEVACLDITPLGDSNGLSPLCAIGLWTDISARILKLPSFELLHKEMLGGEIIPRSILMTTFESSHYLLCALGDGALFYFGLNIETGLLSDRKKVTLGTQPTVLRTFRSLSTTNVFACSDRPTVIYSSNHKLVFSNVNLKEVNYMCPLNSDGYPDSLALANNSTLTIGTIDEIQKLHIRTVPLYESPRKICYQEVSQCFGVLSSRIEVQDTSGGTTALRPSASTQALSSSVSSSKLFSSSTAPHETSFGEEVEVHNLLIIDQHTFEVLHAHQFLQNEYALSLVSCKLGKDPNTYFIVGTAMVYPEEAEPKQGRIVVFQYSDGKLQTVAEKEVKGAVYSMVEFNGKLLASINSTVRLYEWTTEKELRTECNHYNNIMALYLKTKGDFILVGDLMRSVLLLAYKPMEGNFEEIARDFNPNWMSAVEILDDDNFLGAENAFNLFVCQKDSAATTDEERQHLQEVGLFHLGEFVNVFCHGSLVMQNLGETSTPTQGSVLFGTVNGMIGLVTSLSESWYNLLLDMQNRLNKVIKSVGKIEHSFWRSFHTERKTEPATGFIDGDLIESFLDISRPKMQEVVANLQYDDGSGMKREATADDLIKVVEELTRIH

IKZF2 = target: T3, IKZF2 (Homo sapiens, UniProt Q96SW2+Q9UKS7); experiment: Western-blot assay of substrate protein degradation in hPBMCs, IKZF2; format: cell-based; details: 24 hours of compound treatment, compounds tested at 50 nM and 500 nM (concentration of the table not stated)
T3 construct: endogenous in cells; host or cells: hPBMCs (Milecell Biotechnologies)
T3 sequence (Q9UKS7 whole entry): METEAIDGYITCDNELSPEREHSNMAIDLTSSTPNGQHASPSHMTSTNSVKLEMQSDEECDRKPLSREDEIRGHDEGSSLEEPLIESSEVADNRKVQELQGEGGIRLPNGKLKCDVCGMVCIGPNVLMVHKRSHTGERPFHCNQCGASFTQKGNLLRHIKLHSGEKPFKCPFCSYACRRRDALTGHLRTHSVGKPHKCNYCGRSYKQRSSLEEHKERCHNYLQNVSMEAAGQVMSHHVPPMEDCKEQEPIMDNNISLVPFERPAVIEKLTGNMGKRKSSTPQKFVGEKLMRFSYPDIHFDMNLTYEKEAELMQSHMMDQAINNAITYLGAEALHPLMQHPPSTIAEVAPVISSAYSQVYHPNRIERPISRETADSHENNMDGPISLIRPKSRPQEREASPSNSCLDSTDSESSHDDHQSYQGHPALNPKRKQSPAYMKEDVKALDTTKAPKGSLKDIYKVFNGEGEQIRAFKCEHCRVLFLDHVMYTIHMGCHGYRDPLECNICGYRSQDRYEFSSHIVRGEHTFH
T3 sequence (Q96SW2 whole entry): as the sequence (Q96SW2 whole entry) above
T3 sequence (Q16531 whole entry partner): as the sequence (Q16531 whole entry partner) above

IKZF3 = target: T4, IKZF3 (Homo sapiens, UniProt Q96SW2+Q9UKT9); experiment: Western-blot assay of substrate protein degradation in hPBMCs, IKZF3; format: cell-based; details: 24 hours of compound treatment, compounds tested at 50 nM and 500 nM (concentration of the table not stated)
T4 construct: endogenous in cells; host or cells: hPBMCs (Milecell Biotechnologies)
T4 sequence (Q9UKT9 whole entry): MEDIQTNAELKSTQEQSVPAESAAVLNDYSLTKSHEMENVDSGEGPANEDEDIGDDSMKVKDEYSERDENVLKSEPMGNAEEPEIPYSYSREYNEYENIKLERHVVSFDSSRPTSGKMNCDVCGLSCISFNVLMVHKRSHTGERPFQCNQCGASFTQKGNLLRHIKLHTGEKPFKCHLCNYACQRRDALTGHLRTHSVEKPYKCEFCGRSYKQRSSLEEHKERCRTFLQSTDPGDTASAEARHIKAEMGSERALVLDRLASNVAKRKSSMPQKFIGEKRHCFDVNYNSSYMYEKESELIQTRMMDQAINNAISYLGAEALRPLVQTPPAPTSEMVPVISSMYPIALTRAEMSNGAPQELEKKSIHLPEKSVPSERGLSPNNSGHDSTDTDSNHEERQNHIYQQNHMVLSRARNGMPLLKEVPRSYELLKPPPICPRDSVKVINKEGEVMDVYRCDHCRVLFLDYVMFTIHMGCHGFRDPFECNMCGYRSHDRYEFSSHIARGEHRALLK
T4 sequence (Q96SW2 whole entry): as the sequence (Q96SW2 whole entry) above
T4 sequence (Q16531 whole entry partner): as the sequence (Q16531 whole entry partner) above

CK1α = target: T5, CK1α (Homo sapiens, UniProt P48729+Q96SW2); experiment: Western-blot assay of substrate protein degradation in hPBMCs, CK1α; format: cell-based; details: 24 hours of compound treatment, compounds tested at 50 nM and 500 nM (concentration of the table not stated)
T5 construct: endogenous in cells; host or cells: hPBMCs (Milecell Biotechnologies)
T5 sequence (P48729 whole entry): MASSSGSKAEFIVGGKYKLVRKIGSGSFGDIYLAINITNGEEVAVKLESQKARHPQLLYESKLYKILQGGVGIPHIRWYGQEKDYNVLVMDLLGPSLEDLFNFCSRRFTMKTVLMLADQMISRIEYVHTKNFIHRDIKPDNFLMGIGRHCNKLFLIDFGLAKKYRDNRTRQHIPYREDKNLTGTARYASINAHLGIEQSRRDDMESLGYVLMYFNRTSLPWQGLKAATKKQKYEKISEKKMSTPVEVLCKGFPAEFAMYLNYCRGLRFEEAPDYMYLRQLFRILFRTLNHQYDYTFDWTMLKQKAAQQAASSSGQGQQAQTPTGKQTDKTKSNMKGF
T5 sequence (Q96SW2 whole entry): as the sequence (Q96SW2 whole entry) above
T5 sequence (Q16531 whole entry partner): as the sequence (Q16531 whole entry partner) above

GSPT1 = target: T6, GSPT1 (Homo sapiens, UniProt P15170+Q96SW2); experiment: Western-blot assay of substrate protein degradation in hPBMCs, GSPT1; format: cell-based; details: 24 hours of compound treatment, compounds tested at 50 nM and 500 nM (concentration of the table not stated)
T6 construct: endogenous in cells; host or cells: hPBMCs (Milecell Biotechnologies)

[1] = target: T7, human Cereblon WT GST-tagged protein (Homo sapiens, UniProt Q96SW2); experiment: CRBN-binding affinity by HTRF (CEREBLON BINDING kit); details: HTRF inhibitory activity, CEREBLON BINDING kit; read-out: HTRF IC50
T7 construct: purchased CISBIO 64BDCRBNPEH
T7 sequence (Q96SW2 whole entry): as the sequence (Q96SW2 whole entry) above

Vcap = experiment: Tumor cell proliferation inhibition (CellTiter-Meiluncell Luminescent Cell Viability Assay), Vcap; details: Homo sapiens, 96 h, read-out: inhibitory activity (IC50, nM) against tumor cells proliferation, Vcap
TMD8 = experiment: Tumor cell proliferation inhibition (CellTiter-Meiluncell Luminescent Cell Viability Assay), TMD8; details: Homo sapiens, TMD8, 96 h, read-out: inhibitory activity (IC50, nM) against tumor cells proliferation, TMD8
Description: (§1) The tumor cells used herein were cultured in a cell culture medium listed in table 2 at 37°C in an incubator with 5% CO2. Prior to experimentation, all cell lines used were correctly identified by STR profiling, and tested negative for mycoplasma contamination using a mycoplasma detection kit through routine screenings.
(§2) On the following day, the test compounds of the present disclosure were subjected to serial dilution. […] Subsequently, 0.5 µL of the test compound dilution was transferred into the 96-well plate containing the cells, with each well containing 100 µL of cell culture medium. […] Into the 96-well plate, the diluted test compounds and corresponding detection reagents were added, resulting in final test compound concentrations of 500 nM and 10 nM, respectively. The experimental procedure is described below using the diluted 2 µM test compound as an example.
(§3) After the cells were treated with the compounds of the present disclosure for a specified period (the treatment durations were shown in Table 3), the cell viability assay reagent was added to the culture medium according to the kit's instructions to determine cell viability. […] All controls were treated using the same procedure as the compounds of the present disclosure. The growth inhibition curves for the compounds of the present disclosure were plotted using Prism GraphPad software, and the IC50 values were calculated therefrom.

SW620 = experiment: Tumor cell proliferation inhibition (CellTiter-Meiluncell Luminescent Cell Viability Assay), SW620; details: Homo sapiens, SW-620, 96 h, read-out: inhibitory activity (IC50, nM) against tumor cells proliferation, SW620
Description: as §1, §2, §3

Jurkat = experiment: Tumor cell proliferation inhibition (CellTiter-Meiluncell Luminescent Cell Viability Assay), Jurkat; details: Homo sapiens, 96 h, read-out: inhibitory activity (IC50, nM) against tumor cells proliferation, Jurkat
CAL-62 = experiment: Tumor cell proliferation inhibition (CellTiter-Meiluncell Luminescent Cell Viability Assay), CAL-62; details: Homo sapiens, CAL-62, 96 h, read-out: inhibitory activity (IC50, nM) against tumor cells proliferation, CAL-62
Description: as §1, §2, §3

MGC803 = experiment: Tumor cell proliferation inhibition (CellTiter-Meiluncell Luminescent Cell Viability Assay), MGC803; details: Homo sapiens, MGC-803, 96 h, read-out: inhibitory activity (IC50, nM) against tumor cells proliferation, MGC803
Description: as §1
(§4) On the following day, the test compounds of the present disclosure were subjected to serial dilution. […] Subsequently, 0.5 µL of the test compound dilution was transferred into the 96-well plate containing the cells, with each well containing 100 µL of cell culture medium. […] Into the 96-well plate, the diluted test compounds and corresponding detection reagents were added, resulting in final test compound concentrations of 500 nM and 10 nM, respectively.
as §3

CCRF-CEM = experiment: Tumor cell proliferation inhibition (CellTiter-Meiluncell Luminescent Cell Viability Assay), CCRF-CEM; details: Homo sapiens, 96 h, read-out: inhibitory activity (IC50, nM) against tumor cells proliferation, CCRF-CEM
SR = experiment: Tumor cell proliferation inhibition (CellTiter-Meiluncell Luminescent Cell Viability Assay), SR; details: Homo sapiens, 96 h, read-out: inhibitory activity (IC50, nM) against tumor cells proliferation, SR
Description: as §1, §4, §3

MM.1R = experiment: Tumor cell proliferation inhibition (CellTiter-Meiluncell Luminescent Cell Viability Assay), MM.1R; details: Homo sapiens, 96 h, read-out: inhibitory activity (IC50, nM) against tumor cells proliferation, MM.1R
Description: as §1, §2, §3

[2] = tested on: Human acute T lymphocytic leukemia cells (Molt-4); experiment: Tumor cell proliferation inhibition (CellTiter-Meiluncell Luminescent Cell Viability Assay), Molt-4; details: MOLT-4, 96 h, read-out: inhibitory activity (IC50, nM) against tumor cells proliferation, Molt 4
NCI-H1975 = experiment: Tumor cell proliferation inhibition (CellTiter-Meiluncell Luminescent Cell Viability Assay), NCI-H1975; details: Homo sapiens, NCI-H1975, 96 h, read-out: inhibitory activity (IC50, nM) against tumor cells proliferation, H1975
[3] = tested on: Human breast cancer cells (MDA-MB-231); experiment: Tumor cell proliferation inhibition (CellTiter-Meiluncell Luminescent Cell Viability Assay), MDA-MB-231; details: MDA-MB-231, 96 h, read-out: inhibitory activity (IC50, nM) against tumor cells proliferation, MDA-MB-231
Description: as §1, §2, §3

T1 sequence (P30291 whole entry): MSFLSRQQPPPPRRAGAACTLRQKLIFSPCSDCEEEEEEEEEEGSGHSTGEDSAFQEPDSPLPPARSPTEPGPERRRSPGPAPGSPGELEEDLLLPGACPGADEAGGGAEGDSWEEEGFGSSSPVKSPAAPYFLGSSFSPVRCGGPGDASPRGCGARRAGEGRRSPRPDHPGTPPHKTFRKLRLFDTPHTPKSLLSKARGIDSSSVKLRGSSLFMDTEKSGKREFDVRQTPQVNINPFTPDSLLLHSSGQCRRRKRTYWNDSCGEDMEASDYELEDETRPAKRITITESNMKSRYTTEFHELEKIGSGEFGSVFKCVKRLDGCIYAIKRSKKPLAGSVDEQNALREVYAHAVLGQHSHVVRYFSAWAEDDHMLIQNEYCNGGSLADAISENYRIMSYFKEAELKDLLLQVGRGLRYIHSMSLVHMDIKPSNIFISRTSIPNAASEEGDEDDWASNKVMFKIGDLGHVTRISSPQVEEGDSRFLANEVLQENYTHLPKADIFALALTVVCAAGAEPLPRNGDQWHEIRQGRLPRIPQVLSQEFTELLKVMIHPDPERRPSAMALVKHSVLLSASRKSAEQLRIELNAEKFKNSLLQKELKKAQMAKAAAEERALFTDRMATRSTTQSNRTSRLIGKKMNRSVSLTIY
T1 sequence (Q96SW2 whole entry): as the sequence (Q96SW2 whole entry) above
T1 sequence (Q16531 whole entry partner): as the sequence (Q16531 whole entry partner) above

| SMILES | IC50 [1] | IC50 (Vcap) | IC50 (TMD8) | IC50 (SW620) | IC50 (Jurkat) | IC50 (CAL-62) | IC50 (MGC803) | IC50 (CCRF-CEM) | IC50 (SR) | IC50 (MM.1R) | IC50 [2] | IC50 (NCI-H1975) | Weel substrate protein remaining % (WEE1) | IKZF 1 substrate protein remaining % (IKZF1) | IKZF2 substrate protein remaining % (IKZF2) | IKZF3 substrate protein remaining % (IKZF3) | CK1a substrate protein remaining % (CK1α) | GSPT1 substrate protein remaining % (GSPT1) | IC50 [3] |
| --- | --- | --- | --- | --- | --- | --- | --- | --- | --- | --- | --- | --- | --- | --- | --- | --- | --- | --- | --- |
| O=C1CCC(N2Cc3cc(CN4CCC(c5ccccc5Cl)CC4)ccc3C2=O)C(=O)N1 (stereo not drawn) [GT-04468, 3-(5-((4-(2-chlorophenyl)piperidin-1-yl)methyl)-1-oxoisoindolin-2-yl)piperidine-2,6-dione] | 500 to 1000 nM | 50 to 100 nM |  | 100 to 500 nM | 5 to 10 nM | 10 to 50 nM | 500 to 1000 nM | 5 to 10 nM | 500 to 1000 nM | 10 to 50 nM | 5 to 10 nM | 100 to 500 nM | A (0% ≤ substrate protein remaining % ≤ 80%) | A (0% ≤ substrate protein remaining % ≤ 80%) | A (0% ≤ substrate protein remaining % ≤ 80%) | A (0% ≤ substrate protein remaining % ≤ 80%) | A (0% ≤ substrate protein remaining % ≤ 80%) | A (0% ≤ substrate protein remaining % ≤ 80%) |  |
| O=C1CCC(N2Cc3cc(CN4CCC(c5ccccc5F)CC4)ccc3C2=O)C(=O)N1 (stereo not drawn) [GT-04470, 3-(5-((4-(2-fluorophenyl)piperidin-1-yl)methyl)-1-oxoisoindolin-2-yl)piperidine-2,6-dione] | 500 to 1000 nM | 50 to 100 nM |  | 100 to 500 nM | 5 to 10 nM | 10 to 50 nM | 100 to 500 nM | 10 to 50 nM | 500 to 1000 nM | 10 to 50 nM | 10 to 50 nM | 500 to 1000 nM | A (0% ≤ substrate protein remaining % ≤ 80%) | A (0% ≤ substrate protein remaining % ≤ 80%) | A (0% ≤ substrate protein remaining % ≤ 80%) | A (0% ≤ substrate protein remaining % ≤ 80%) | A (0% ≤ substrate protein remaining % ≤ 80%) | A (0% ≤ substrate protein remaining % ≤ 80%) |  |
| Cc1ccsc1C1=CCN(Cc2ccc3c(c2)CN(C2CCC(=O)NC2=O)C3=O)CC1 (stereo not drawn) [GT-04495, 3-(5-((4-(3-methylthiophen-2-yl)-3,6-dihydropyridin-1(2H)-yl)methyl)-1-oxoisoindolin-2-yl)piperidine-2,6-dione] | < 500 nM | 1 to 5 nM |  | 1 to 5 nM | < 1 nM | < 1 nM | 10 to 50 nM | < 1 nM | 1 to 5 nM |  | < 1 nM | 1 to 5 nM | B (80%< substrate protein remaining %≤ 100%) | B (80%< substrate protein remaining %≤ 100%) | A (0% ≤ substrate protein remaining % ≤ 80%) | B (80%< substrate protein remaining %≤ 100%) | A (0% ≤ substrate protein remaining % ≤ 80%) | A (0% ≤ substrate protein remaining % ≤ 80%) | 1 to 5 nM |

Further lines, with some results ahead:

| IC50 [1] | IC50 (Vcap) | IC50 (TMD8) | IC50 (SW620) | IC50 (Jurkat) | IC50 (CAL-62) | IC50 (MGC803) | IC50 (CCRF-CEM) | IC50 (SR) | IC50 (MM.1R) | IC50 [2] | IC50 (NCI-H1975) | SMILES | Weel substrate protein remaining % (WEE1) | IKZF 1 substrate protein remaining % (IKZF1) | IKZF2 substrate protein remaining % (IKZF2) | IKZF3 substrate protein remaining % (IKZF3) | CK1a substrate protein remaining % (CK1α) | GSPT1 substrate protein remaining % (GSPT1) | IC50 [3] |
| --- | --- | --- | --- | --- | --- | --- | --- | --- | --- | --- | --- | --- | --- | --- | --- | --- | --- | --- | --- |
| 500 to 1000 nM | 1 to 5 nM | 10 to 50 nM | 1 to 5 nM | 1 to 5 nM | 1 to 5 nM | 10 to 50 nM | 1 to 5 nM |  |  |  |  | O=C1CCC(N2Cc3cc(CN4CCN(c5cccc6sccc56)CC4)ccc3C2=O)C(=O)N1 (stereo not drawn) [GT-04202, 3-(5-((4-(benzo[b]thiophen-4-yl)piperazin-1-yl)methyl)-1-oxoisoindolin-2-yl)piperidine-2,6-dione] | A (0% ≤ substrate protein remaining % ≤ 80%) | A (0% ≤ substrate protein remaining % ≤ 80%) | A (0% ≤ substrate protein remaining % ≤ 80%) | A (0% ≤ substrate protein remaining % ≤ 80%) | A (0% ≤ substrate protein remaining % ≤ 80%) | A (0% ≤ substrate protein remaining % ≤ 80%) |  |
| 500 to 1000 nM | 5 to 10 nM | 10 to 50 nM | 10 to 50 nM | 5 to 10 nM | 5 to 10 nM | 100 to 500 nM | 5 to 10 nM |  |  |  |  | Cc1ccc(Sc2ccccc2N2CCN(Cc3ccc4c(c3)CN(C3CCC(=O)NC3=O)C4=O)CC2)c(C)c1 (stereo not drawn) [GT-04203, 3-(5-((4-(2-((2,4-dimethylphenyl)thio)phenyl)piperazin-1-yl)methyl)-1-oxoisoindolin-2-yl)piperidine-2,6-dione] | A (0% ≤ substrate protein remaining % ≤ 80%) | A (0% ≤ substrate protein remaining % ≤ 80%) | A (0% ≤ substrate protein remaining % ≤ 80%) | A (0% ≤ substrate protein remaining % ≤ 80%) | A (0% ≤ substrate protein remaining % ≤ 80%) | A (0% ≤ substrate protein remaining % ≤ 80%) |  |
| 500 to 1000 nM | 10 to 50 nM | 100 to 500 nM | 10 to 50 nM | 10 to 50 nM | 10 to 50 nM | 100 to 500 nM | 5 to 10 nM |  |  |  |  | O=C1CCC(N2Cc3cc(CN4CCC(c5noc6cc(F)ccc56)CC4)ccc3C2=O)C(=O)N1 (stereo not drawn) [GT-04254, 3-(5-((4-(6-fluorobenzo[d]isoxazol-3-yl)piperidin-1-yl)methyl)-1-oxoisoindolin-2-yl)piperidine-2,6-dione] | A (0% ≤ substrate protein remaining % ≤ 80%) | A (0% ≤ substrate protein remaining % ≤ 80%) | A (0% ≤ substrate protein remaining % ≤ 80%) | A (0% ≤ substrate protein remaining % ≤ 80%) | A (0% ≤ substrate protein remaining % ≤ 80%) | A (0% ≤ substrate protein remaining % ≤ 80%) |  |
